From article PMC10384011, “m-Terphenylamines, Acting as Selective COX-1 Inhibitors, Block Microglia Inflammatory Response and Exert Neuroprotective Activity” (Molecules, 2023) come the findings set out here.

The target in one experiment is T1, human COX-2 (Homo sapiens, UniProt P35354).
T1 construct: purchased Cayman Chemicals 701050
T1 sequence (P35354 18-604): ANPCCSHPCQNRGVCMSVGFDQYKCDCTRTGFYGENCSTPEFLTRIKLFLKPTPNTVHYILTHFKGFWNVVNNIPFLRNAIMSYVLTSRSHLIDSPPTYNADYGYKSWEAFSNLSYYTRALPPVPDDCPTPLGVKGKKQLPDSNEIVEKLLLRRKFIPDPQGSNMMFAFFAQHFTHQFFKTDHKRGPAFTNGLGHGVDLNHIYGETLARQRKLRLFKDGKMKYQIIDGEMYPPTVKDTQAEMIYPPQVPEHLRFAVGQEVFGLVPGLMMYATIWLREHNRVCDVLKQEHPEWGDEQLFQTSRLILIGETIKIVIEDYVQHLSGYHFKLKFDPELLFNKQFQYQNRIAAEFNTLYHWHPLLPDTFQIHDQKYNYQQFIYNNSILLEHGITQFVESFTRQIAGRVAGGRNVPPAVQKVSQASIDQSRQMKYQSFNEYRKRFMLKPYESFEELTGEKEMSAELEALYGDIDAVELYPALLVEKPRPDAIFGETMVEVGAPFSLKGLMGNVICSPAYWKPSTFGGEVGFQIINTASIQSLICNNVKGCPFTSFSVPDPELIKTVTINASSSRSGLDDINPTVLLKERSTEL
Put plainly: Cyclooxygenase colorimetric inhibitor screening assay, COX-2.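 Also: peroxidase activity of COX-2 followed colorimetrically through formation of oxidized TMPD at 590 nm, with arachidonic acid as substrate, compounds tested from 0.001 to 50 µM.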 In kind it is biochemical. As to conditions: human COX-2, colorimetric kit; read-out: hCOX-2; IC50.

The test system of a further experiment is BV2 microglia cells. The experiment is described as follows: ROS production (H2DCFDA) in LPS-treated BV2 microglia. In kind it is cell-based. As to conditions: 3 μM, LPS 1 μg/mL, 24 h. The source says: Activation of toll-like receptors (TLRs), particularly the TLR4 subtype, is closely associated with the production of reactive oxygen and nitrogen species that contribute to neuronal death in the CNS. In this connection, NADPH oxidase enzymes are the main ones responsible for ROS production induced by NF-κB nuclear translocation. For this reason, we decided to assess the ROS levels of BV2 microglia cells treated with LPS and the effect of our compounds under this toxicity protocol. To this end, the compounds, at different concentrations (3 μM of 3a, 3b, and 3d and 10 μM of 3c) were incubated with 1 μg/mL LPS for 24 h. After this period, ROS production was measured with the fluorescent probe H2DCFDA. Treatment with LPS increased by 1.75-fold the amount of ROS compared with control cells.
Cultures were seeded into flasks containing supplemented medium and kept at 37 °C in a humidified atmosphere of 5% CO2 and 95% air. For assays, BV-2 cells were subcultured in 48-well plates at a seeding density of 1 × 10^5 cells per well. Cells were treated with LPS (Sigma-Aldrich, Madrid, Spain) for 24 or 48 h before confluence in RPMI with 1% FBS.
To measure cellular ROS, we used the molecular probe 2′,7′-dichlorodihydrofluorescein diacetate (H2DCFDA). Glial cells were loaded with 5 µM H2DCFDA as it was previously described (Parada et al., 2015). Fluorescence was measured in a fluorescence microplate reader (FLUOstar Galaxy; BMG Labtech, Offenburg, Germany). Wavelengths of excitation and emission were 485 and 520 nm, respectively. The relative pixel intensity was measured in identical regions with (ImageJ 1.52a software, National Institutes of Health, Bethesda, MD, USA).

Description for human COX-2: Newly synthesized compounds were evaluated for their ability to inhibit ovine COX-1 or human COX-2 enzyme by measuring the extent (%) of enzyme activity inhibition at different concentrations (0.001, 0.01, 0.1, 1, 10, 50 μM). […] The assay kit measures the peroxidase component of COXs that is assayed colorimetrically by monitoring the appearance of oxidized N,N,N′,N′-tetramethyl-p-phenylenediamine (TMPD) a λ = 590 nm. […] Stock solutions of test compounds were dissolved in DMSO.

Turning to `Cc1ccc(-c2cc(N)cc(-c3ccccc3)c2)cc1` [Compound 3b, 4-Methyl-5′-amino-m-terphenyl], the IC50 at human COX-2 was above 50 µM. Also, in the experiment on BV2 microglia cells, the “ROS production induced by LPS” value is “significantly reverted ROS production almost to basal levels”.
